The source of these data is US20170000784A1, “Autophagy Inhibitors” (priority 2013, published 2017).

“Also recorded” adds a separate entry of the source. Read-outs that look alike come from different tables or passages of the source.

Assay type in all cases: cell-based
Test [1] relates to lysosomes (LAMP1, LysoTracker Red) in U2OS cells. As to the kind of experiment: Lysosome analysis by fluorescent microscopy (LAMP1 / LysoTracker Red). The following applies: 3 μM for 3 hours; for LysoTracker Red staining: LysoTracker Red for the final hour. On the procedure: To determine deacidification of the lysosome, cells were incubated with LysoTracker Red, a dye that localizes to the lysosome based on the […] of the compartment. If the lysosome is no longer acidic, there is a loss in the amount of LysoTracker Red staining. Lysosomal inhibition was further determined by immunofluorescence of lysosome-associated membrane protein-1 (LAMP1). If the lysosome is inhibited, lysosomal turnover should decrease and an increase in the amount of LAMP1 staining would be apparent. U2OS cells were treated with Example 7 or Example 26 at 3 μM for 3 hours, supplementing LysoTracker Red for the final hour.
Using image analysis software, the mean intensities of both the LAMP1 and LysoTracker Red staining were measured and represent altered intensity level between treatments on intensity plots. Individual points were measured using a line scan on the image analysis software, which measures the intensity across the path of a line at any given point. Not only does the presence of LAMP1 positive membranes increases, but the intensity in LAMP1 staining also increases with Example 7 and Example 26 treatment. The inverse relationship in intensity holds true for LysoTracker Red staining.
U2OS cells were seeded at 5×10^4 cells per well in 5A McCoy's with 10% FBS on number 1.5 coverglass discs in 24-well tissue culture dishes. After 24 hours, cells were treated with 3 μM CQ, QN, VATG-027, or VATG-032 for three hours. An hour prior to fixation, media was supplemented with LysoTracker Red added at 100 nM (Invitrogen, L7528). Cells were washed with 1×PBS, fixed with 3.7% formaldehyde, permeabilized with 0.2% Triton-X 100, and blocked with 3% bovine serum albumin (BSA) in PBS. LAMP1 antibody (Santa Cruz, sc-18821) was added at 1:1000 for 16 hours at 4° C. followed by Alexa-Fluor-488-conjugated anti-mouse IgG (Invitrogen, A11008) 1:5000 for 1 hour at room temperature. Nuclei were stained with Hoechst 33342 (2 μg/mL). Coverglass discs were inverted onto a microscope slide using mounting gel. The microscope slides were imaged using a 60× oil-immersion objective on a Nikon Eclipse Ti fluorescent microscope. Intensity of the red and green channels were visualized using the intensity plot on the Nikon NIS Elements software (FIG. 13B). […] The RGB threshold of only the color […] indicating both LAMP1 and LysoTracker Red positivity was performed and data for analysis. The Mander's co-localization coefficient was produced from the Nikon NIS Elements software.
Next, the inventors sought to confirm the inhibition of lysosomal turnover induced by the compounds of the present invention, for example, those of Formula III, Formula III(a), Formula V, Formula V(a), Formula A, Formula A^1, Formula A^2, Formula A^3, or a pharmaceutically acceptable salt thereof, by evaluating the abundance of endogenous lysosomal protein, LAMP1. In addition, lysosome acidity was assessed by co-staining cells with LysoTracker Red, a dye that localizes to the lysosome based on the low pH. Cells were treated with 3 μM CQ, QN, Example 7, or Example 27 for 3 hours, with LysoTracker Red supplemented for the final hour. Following, cells were fixed and stained with endogenous LAMP1 antibodies and both LAMP1 and LysoTracker Red imaged. […] To quantify this phenotype, the co-localization of LAMP1 and LysoTracker Red was measured using image analysis software. […] In addition, Mander's colocalization coefficient (MCC) values were determined for each treatment (FIG. 13C). Not only does the presence of LAMP1-positive membranes increase, but the intensity of LAMP1 staining also increases with QN, Example 7, and Example 27 treatment (FIG. 13C).

For test [2], the system named is UACC-1940 melanoma cell line. As to the kind of experiment: Cell viability (IC50) screen, CellTiter Glo, UACC-1940. As to conditions: Homo sapiens. On the procedure:
U2OS cells were seeded at 500 cells per well in 5A McCoy's with 10% FBS in 96-well clear bottom, black-walled tissue culture plates. All melanoma cell lines (A375, UACC-91, UACC-257, UACC-502, UACC-903, UACC-1308, UACC-1940, UACC-2534, and UACC-3291) were seeded at 5,000 cells per well in RPMI 1640 with 10% FBS in 96-well clear bottom, black-walled tissue culture plates. After 24 hour incubation, cells were treated with VATG compounds in triplicate with a 10-point half log dose response from […] for 24 and 48 hours. Medium was removed and 2× CellTiter Glo (Promega, G7571) reagent mixed 1:1 with Opti-MEM (Invitrogen, 31985062) was added at 100 μL per well and incubated at room temperature for 15 minutes while rocking. 75 μL per well was moved to a white-walled 96-well plate and luminescence quantified using the 96 LUM program on an EnVision plate reader (PerkinElmer) and exported for analysis. All triplicate data points were averaged and luminescent readings for each treatment were normalized to vehicle control for change in viability. Dose response curves were input into SigmaPlot for IC50 calculations (Systat Software Inc).
A general note: ATP-based viability assays read luminescence as a measure of living cells.

Test [3] concerns U2OS cells. As to the kind of experiment: Transmission electron microscopy of lysosomal vesicles. As to conditions: 3 μM for 3 hours, FIG. 12B. As to the method: U2OS cells were seeded in 10 cm plates in 5A McCoy's with 10% FBS at 1×10^6 cells per plate. After 24 hours incubation, cells were treated with DMSO (vehicle control), CQ (3 or 100 μM), quinicrine (3 μM), VATG-027 (3 μM), or VATG-032 (3 μM) for three hours. Following, cells were trypsinized, washed, pelleted, and resuspended in 2% glutaraldehyde fixative (Sigma, G5882). Cell pellets were embedded in 2% agarose, post-fixed in osmium tetroxide, and dehydrated with an acetone series. Cell samples were infiltrated and embedded in Poly/Bed 812 resin and polymerized at 60° C. for 24 hours. Ultrathin sections of 70 nm were generated with a Power Tome XL (Boeckeler Instruments) and placed on copper grids. Sections were examined using a JEOL 100Cx Transmission Electron Microscope at 100 kV. Lysosomal structures were identified by a single membrane structure lacking cytosolic components (FIG. 12). Transmission electron microscopy services were performed by Michigan State University Center for Advanced Microscopy (East Lansing, Mich.).
To test the theory, lysosomal turnover was first evaluated by visualizing lysosomes using transmission electron microscopy (TEM). U2OS cells were initially treated with a CQ concentration above the effective dose (100 μM) for 3 hours as a positive control, and were then subsequently fixed and imaged. […] Once this phenotype was established, cells were treated with a lower concentration (3 μM) of CQ to compare each compound at the same concentration.

[4] abbreviates: UACC-1940 cell viability, CellTiter Glo, read-out: IC50.

By IC50 is commonly meant the point on the concentration scale where inhibition reaches its midpoint.

For `COc1ccc2nc3cc(Cl)ccc3c(NCCCCN3CCN(C)CC3)c2c1` [Example 7, 6-Chloro-2-methoxy-N-(4-(4-methylpiperazin-1-yl)butyl)acridin-9-amine], in test [1], the LAMP1 staining entry is given as “substantial increases” and the “LysoTracker Red staining” value was “essentially ablated; also recorded: less intense; also recorded: essentially eliminated”. In addition, the IC50 in test [2] (setting [4]) was found to be 4 µM. Also, in test [3], the “electron-opaque structures, consistent with lipid droplets (TEM)” value is “appearance of several electron-opaque structures”; the “size and number of electron-lucent and electron-dense vesicles (TEM)” value (shortened to “size and number”) is “increase in both the size and number”.
Turning to `CCN(CC)CCCC(C)Nc1c2ccc(Cl)cc2nc2ccc(OC)cc12` (centres unmarked) [Quinacrine, quinacrine, reference compound], in test [1], the LAMP1 staining entry is on record as “substantial increases” and the “LysoTracker Red staining” value is given as “essentially eliminated”. In addition, the 50% inhibitory concentration (IC50) in test [2] (setting [4]) worked out at 1.9 µM. Besides, the “size and number” value in test [3] is “increase in both the size and number”.
As to `CN1CCN(CCNc2c3c(nc4cc(Cl)ccc24)CCCC3)CC1` [Example 27, 6-Chloro-N-(2-(4-methylpiperazin-1-yl)ethyl)-1,2,3,4-tetrahydroacridin-9-amine], in test [1], the LAMP1 staining result is “substantial increases” and the “LysoTracker Red staining” value is reported as “essentially ablated; also recorded: essentially eliminated”. In test [2], the IC50 was found to be 21.6 µM. In addition, in test [3], the “electron-opaque structures, consistent with lipid droplets (TEM)” value was “appearance of several electron-opaque structures”; the “size and number” value is “increase in both the size and number”.
